Each compound was assayed against Cytochrome P450 2D6 (Homo sapiens, UniProt P10635).
Chain of Cytochrome P450 2D6 (P10635 whole entry): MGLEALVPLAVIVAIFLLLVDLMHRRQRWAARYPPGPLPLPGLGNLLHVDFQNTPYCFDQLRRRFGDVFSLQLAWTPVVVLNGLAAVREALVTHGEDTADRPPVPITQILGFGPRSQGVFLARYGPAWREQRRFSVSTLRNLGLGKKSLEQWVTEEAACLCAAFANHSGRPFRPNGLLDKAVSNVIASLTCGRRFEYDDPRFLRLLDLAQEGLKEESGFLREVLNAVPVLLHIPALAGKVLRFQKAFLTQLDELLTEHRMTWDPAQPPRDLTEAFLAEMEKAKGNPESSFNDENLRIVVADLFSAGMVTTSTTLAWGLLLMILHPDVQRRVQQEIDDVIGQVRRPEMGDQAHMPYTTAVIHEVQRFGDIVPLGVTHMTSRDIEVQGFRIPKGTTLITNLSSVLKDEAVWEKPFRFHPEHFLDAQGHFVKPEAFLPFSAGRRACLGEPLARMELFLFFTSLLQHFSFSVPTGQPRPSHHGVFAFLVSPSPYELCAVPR
In the case of CC(=O)C1=C(O)[C@@H]2[C@@H]3c4c[nH]c5cccc(c45)C[C@@H]3C(C)(C)N2C1=O, the AC50 is reported as 39.8 µM (inconclusive).
Nc1nc(Cl)cc(N2CCOCC2)n1 was tested, and the AC50 was 39.8 µM (inconclusive).
For NC(=O)CNC(=O)[C@@H]1CC2(CC(c3cccc([N+](=O)[O-])c3)=NO2)CN1C(=O)c1ccccc1 (stereo partly drawn), the AC50 was 31.6 µM (inconclusive).
With N#Cc1cccc(-c2ccc3ncnc(NCc4ccccc4)c3c2)c1 the AC50 was 10 µM (inconclusive).
For N=C(NOC(=O)Cc1ccc(Cl)cc1)c1cccnc1, the AC50 was 6.31 µM (inconclusive).
CNc1ncncc1-c1ccccc1C was tested, and the AC50 was 31.6 µM (inconclusive).
For Cc1nn(Cc2ccc([N+](=O)[O-])cc2)c(=O)n1-c1cccc(F)c1, the AC50 was 25.1 µM (inconclusive).
For CC12CC(NC(=O)N1c1cccc(C(=O)NCc3ccccc3)c1)c1ccccc1O2 (stereo not drawn), the AC50 was 28.2 µM (inconclusive).
With CCOc1c2ccc(C(=O)NCc3ccc4c(c3)OCO4)cc2nn1CC the AC50 was 15.8 µM (inconclusive).
In the case of CCc1cc2c(c(CC)n1)CCC(=O)N2Cc1ccc(-c2ccccc2-c2nnn[nH]2)cc1, the AC50 is reported as 10 µM (inconclusive).

The compounds below were run against Cytochrome P450 2C9 (Homo sapiens, UniProt P11712).
Chain of Cytochrome P450 2C9 (P11712 whole entry): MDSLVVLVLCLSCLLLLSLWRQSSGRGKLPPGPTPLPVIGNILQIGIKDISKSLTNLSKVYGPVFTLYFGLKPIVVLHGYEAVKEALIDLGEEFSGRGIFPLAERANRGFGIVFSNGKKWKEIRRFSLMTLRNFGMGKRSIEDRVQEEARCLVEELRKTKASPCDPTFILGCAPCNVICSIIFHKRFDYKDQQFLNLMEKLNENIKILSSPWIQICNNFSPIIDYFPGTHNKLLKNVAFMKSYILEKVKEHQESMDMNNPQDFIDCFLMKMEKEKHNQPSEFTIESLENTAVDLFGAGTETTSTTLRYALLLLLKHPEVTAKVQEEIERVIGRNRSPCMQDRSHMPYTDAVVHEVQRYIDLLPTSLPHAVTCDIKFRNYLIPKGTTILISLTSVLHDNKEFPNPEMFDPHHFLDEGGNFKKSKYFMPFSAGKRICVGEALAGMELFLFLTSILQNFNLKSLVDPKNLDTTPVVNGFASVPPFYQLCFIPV
For NC(=O)CNC(=O)[C@@H]1CC2(CC(c3cccc([N+](=O)[O-])c3)=NO2)CN1C(=O)c1ccccc1 (stereo partly drawn), the AC50 was 0.708 µM (inconclusive).
With N#Cc1cccc(-c2ccc3ncnc(NCc4ccccc4)c3c2)c1 the AC50 was 0.631 µM (inconclusive).
N=C(NOC(=O)Cc1ccc(Cl)cc1)c1cccnc1 was tested, and the AC50 was 12.6 µM (inconclusive).
CCc1cc2c(c(CC)n1)CCC(=O)N2Cc1ccc(-c2ccccc2-c2nnn[nH]2)cc1 was tested, and the AC50 was 25.1 µM (inconclusive).

The compounds below were run against T1, Cytochrome P450 1A2 (Homo sapiens, UniProt P05177).
T1 sequence (P05177 whole entry): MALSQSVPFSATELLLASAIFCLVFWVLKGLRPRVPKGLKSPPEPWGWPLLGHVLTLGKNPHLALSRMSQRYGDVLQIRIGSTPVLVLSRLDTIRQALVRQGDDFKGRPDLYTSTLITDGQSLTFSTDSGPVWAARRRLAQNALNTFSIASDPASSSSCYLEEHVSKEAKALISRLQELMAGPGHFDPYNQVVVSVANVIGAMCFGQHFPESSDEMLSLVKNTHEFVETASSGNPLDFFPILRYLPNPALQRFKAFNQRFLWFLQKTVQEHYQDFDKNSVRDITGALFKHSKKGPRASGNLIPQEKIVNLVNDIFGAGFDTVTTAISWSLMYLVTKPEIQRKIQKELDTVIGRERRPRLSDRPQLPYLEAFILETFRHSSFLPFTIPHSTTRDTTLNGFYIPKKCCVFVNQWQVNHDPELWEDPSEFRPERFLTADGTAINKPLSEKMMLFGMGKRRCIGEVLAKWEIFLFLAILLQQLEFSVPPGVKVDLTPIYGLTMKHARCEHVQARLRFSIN
In the case of CC(=O)C1=C(O)[C@@H]2[C@@H]3c4c[nH]c5cccc(c45)C[C@@H]3C(C)(C)N2C1=O, the AC50 is reported as 12.6 µM (inconclusive).
With Nc1nc(Cl)cc(N2CCOCC2)n1 the AC50 was 15.8 µM (inconclusive).
With CNc1ncncc1-c1ccccc1C the AC50 was 12.6 µM (inconclusive).
In the case of Cc1nn(Cc2ccc([N+](=O)[O-])cc2)c(=O)n1-c1cccc(F)c1, the AC50 is reported as 17.8 µM (inconclusive).
In the case of CC12CC(NC(=O)N1c1cccc(C(=O)NCc3ccccc3)c1)c1ccccc1O2 (stereo not drawn), the AC50 is reported as 25.1 µM (inconclusive).
In the case of CCOc1c2ccc(C(=O)NCc3ccc4c(c3)OCO4)cc2nn1CC, the AC50 is reported as 8.91 µM (inconclusive).

Each compound was assayed against Cytochrome P450 3A4 (Homo sapiens, UniProt P08684).
Chain of Cytochrome P450 3A4 (P08684 whole entry): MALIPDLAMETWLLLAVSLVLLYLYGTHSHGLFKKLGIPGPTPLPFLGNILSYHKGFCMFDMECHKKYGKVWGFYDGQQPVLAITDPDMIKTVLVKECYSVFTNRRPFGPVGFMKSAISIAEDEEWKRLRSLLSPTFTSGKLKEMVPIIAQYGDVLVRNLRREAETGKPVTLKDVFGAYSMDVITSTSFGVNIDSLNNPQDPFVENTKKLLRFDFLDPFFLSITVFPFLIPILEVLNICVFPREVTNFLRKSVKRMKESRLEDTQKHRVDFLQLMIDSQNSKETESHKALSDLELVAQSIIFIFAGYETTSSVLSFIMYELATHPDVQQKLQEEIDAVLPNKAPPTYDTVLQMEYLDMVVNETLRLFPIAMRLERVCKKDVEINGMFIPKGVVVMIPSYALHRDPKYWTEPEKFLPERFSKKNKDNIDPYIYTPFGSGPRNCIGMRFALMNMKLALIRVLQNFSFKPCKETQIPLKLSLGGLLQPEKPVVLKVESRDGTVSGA
With CC(=O)C1=C(O)[C@@H]2[C@@H]3c4c[nH]c5cccc(c45)C[C@@H]3C(C)(C)N2C1=O the AC50 was 10 µM (inconclusive).
In the case of N#Cc1cccc(-c2ccc3ncnc(NCc4ccccc4)c3c2)c1, the AC50 is reported as 15.8 µM (inconclusive).
With CCc1cc2c(c(CC)n1)CCC(=O)N2Cc1ccc(-c2ccccc2-c2nnn[nH]2)cc1 the AC50 was 20 µM (inconclusive).

— ChEMBL document CHEMBL1201862, “PubChem BioAssay data set” (2004)
